From patent US20150274658A1, “THERAPEUTIC LACTAMS” (Allergan, Inc., priority 2014, published 2015)

Columns and labels:
EP2 [1] = biological target: T1, EP2 (Homo sapiens, UniProt P43116); assay: EP2 cAMP functional assay; type: cell-based
Excerpt: (§1) U.S. patent application Ser. No. 11/553,143, filed on Oct. 26, 2006, incorporated by reference herein, describes the methods used to obtain the in vitro data in the table below.

EP2 [2] = biological target: T1, EP2; assay: EP2 binding (Ki)
Excerpt: as §1

T1 sequence (P43116 whole entry): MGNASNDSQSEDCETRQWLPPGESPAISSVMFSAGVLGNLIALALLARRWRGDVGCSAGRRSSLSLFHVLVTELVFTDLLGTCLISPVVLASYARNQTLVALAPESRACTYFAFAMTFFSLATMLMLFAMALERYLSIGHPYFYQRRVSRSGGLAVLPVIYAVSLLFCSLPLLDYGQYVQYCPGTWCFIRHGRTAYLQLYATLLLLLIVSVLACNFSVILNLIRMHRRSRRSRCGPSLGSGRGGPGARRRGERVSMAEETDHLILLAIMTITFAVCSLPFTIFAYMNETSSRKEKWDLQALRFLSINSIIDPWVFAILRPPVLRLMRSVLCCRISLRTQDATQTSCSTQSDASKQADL

Question: CCCCCC(O)c1ccc(N2C(=O)C(C)C[C@@H]2COCc2ccc(C(=O)O)s2)cc1 (single isomer, unassigned) [Example 1] was tested. Which EC50 (EP2 [1]) did it give?
Answer: 0.233 µM

Question: Which Ki (EP2 [2]) does the source give for CCCCCC(O)c1ccc(N2C(=O)C(C)C[C@@H]2COCc2ccc(C(=O)O)s2)cc1 (single isomer, unassigned) [Example 2] here?
Answer: > 10 µM
